Laboratory results from patent publication US9481648B2, “Kinase inhibitors” (Respivert Limited, priority 2013, dated 2016).
Where two headings read alike, the source gives them in different places.

How the values were obtained:
[1] = Human hepatocyte stability test; format: in vitro ADME; conditions: human hepatocytes
Protocol: (§1) Assessment of certain in vitro ADME (absorption, distribution, metabolism, and excretion) parameters for certain compounds of the invention was conducted by BioFocus (Saffron Walden, UK).

[2] = Plasma pharmacokinetics in rats, single intravenous or oral administration; format: in vivo, rat (male Wistar)
Protocol: Studies were conducted by Sai Life Sciences (Hinjewadi, Pune, India) to investigate the plasma pharmacokinetics and total colon tissue distribution of compounds of the invention. In particular, pharmacokinetic studies were carried out in: • male C57BL/6 mice, following a single oral administration; and • male Wistar rats following a single intravenous or oral administration.

p38 MAPKα (MAPK14) = p38 MAPKα (MAPK14) (Homo sapiens (Human), UniProt Q16539); experiment: p38 MAPKα enzyme inhibition (FRET, Z-LYTE; Method 2); format: biochemical
c-Src = c-Src (Homo sapiens (Human), UniProt P12931); experiment: c-Src enzyme inhibition (FRET, Z-LYTE); format: biochemical
Method in brief: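 Syk or c-Src enzyme (3000 or 2000 ng/mL solutions) was preincubated 2 h at RT with compound solutions at 1, 0.1, 0.01 or 0.001 µg/mL. Z-LYTE FRET peptide (8 µM solution) and ATP (800 µM solution for c-Src, 60 µM for Syk) were then added for 1 h, followed by protease development for 1 h. Phosphorylation was read as the coumarin/fluorescein emission ratio.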

non-mutant kinases = format: binding; conditions: for KinomeScan Selectivity Score S(1): (number of non-mutant kinases with % Ctrl <1)/(number of non-mutant kinases tested); for KinomeScan Selectivity Score S(10): (number of non-mutant kinases with % Ctrl <10)/(number of non-mutant kinases tested); for KinomeScan Selectivity Score S(35): (number of non-mutant kinases with % Ctrl <35)/(number of non-mutant kinases tested); for number of individual kinase hits, S(1): non-mutant kinases with % Ctrl <1; for number of individual kinase hits, S(10): non-mutant kinases with % Ctrl <10; for number of individual kinase hits, S(35): non-mutant kinases with % Ctrl <35
Method in brief: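 Each test compound was incubated with the kinase, and percentage inhibition was calculated relative to a non-inhibited control.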

Syk = Syk (Homo sapiens (Human), UniProt P43405); experiment: KINOMEscan enzyme binding assay (dissociation constant)
Protocol: (§2) Kinase enzyme binding activities of compounds disclosed herein may be determined using a proprietary assay which measures active site-directed competition binding to an immobilized ligand (Fabian, M. A. et al., Nature Biotechnol., 2005, 23:329-336). These assays may be conducted by DiscoverX (formerly Ambit; San Diego, Calif.). The percentage inhibition produced by incubation with a test compound may be calculated relative to the non-inhibited control.

p38 MAPKα = p38 MAPKα (Homo sapiens (Human), UniProt Q16539); experiment: as above
Protocol: as §2

Lck = Lck (Homo sapiens (Human), UniProt P06239); experiment: as above
Protocol: as §2

B-Raf = B-Raf (Homo sapiens (Human), UniProt P15056); experiment: KINOMEscan binding of kinase to its standard ligand
Protocol: as §2

B-Raf (V600E) = B-Raf (V600E) (Homo sapiens (Human), UniProt P15056, V600E); experiment: as above
Protocol: as §2

CYP3A4 = CYP3A4 (Homo sapiens (Human), UniProt P08684); experiment: CYP3A4 inhibition study; format: in vitro ADME; conditions: for inhibition at 15 µM: human, read-out: 15 μM % Inh
Protocol: as §1

[3] = tested on: endotoxin (LPS)-induced uveitis in Lewis rats; experiment: Endotoxin-induced uveitis in rats (in vivo vi); set-up: species or system rat
Protocol: Male, Lewis rats (6-8 weeks old, Charles River UK Limited) are housed in cages of 3 at 19-21° C. with a 12 h light/dark cycle (07:00/19:00) and fed a standard diet of rodent chow and water ad libitum. Non-fasted rats are weighed, individually identified on the tail with a permanent marker, and receive a single intravitreal administration into the right vitreous humor (5 μL dose volume) of 100 ng/animal of LPS (Escherichia coli 0111:B4 prepared in PBS, Sigma Aldrich, UK) using a 32-gauge needle. Untreated rats are injected with PBS. […] Following euthanasia, the right eye of each animal is enucleated and dissected into front (anterior) and back (posterior) sections around the lens. Each section is weighed and homogenised in 500 μL of sterile phosphate buffered saline followed by 20 minutes centrifugation at 12000 rpm at 4° C.

[4] = male, Wistar, rat, plasma, po, 5 mg/kg
[5] = male, Wistar, rat, plasma, po, 5 mg/kg, read-out: Median plasma concentration
[6] = male, Wistar, rat, plasma, rats, intravenous 0.25 mg/kg
[7] = Table 7b, eyes of LPS-stimulated rats, 1 mg/mL

Sequence of CYP3A4 (P08684 whole entry): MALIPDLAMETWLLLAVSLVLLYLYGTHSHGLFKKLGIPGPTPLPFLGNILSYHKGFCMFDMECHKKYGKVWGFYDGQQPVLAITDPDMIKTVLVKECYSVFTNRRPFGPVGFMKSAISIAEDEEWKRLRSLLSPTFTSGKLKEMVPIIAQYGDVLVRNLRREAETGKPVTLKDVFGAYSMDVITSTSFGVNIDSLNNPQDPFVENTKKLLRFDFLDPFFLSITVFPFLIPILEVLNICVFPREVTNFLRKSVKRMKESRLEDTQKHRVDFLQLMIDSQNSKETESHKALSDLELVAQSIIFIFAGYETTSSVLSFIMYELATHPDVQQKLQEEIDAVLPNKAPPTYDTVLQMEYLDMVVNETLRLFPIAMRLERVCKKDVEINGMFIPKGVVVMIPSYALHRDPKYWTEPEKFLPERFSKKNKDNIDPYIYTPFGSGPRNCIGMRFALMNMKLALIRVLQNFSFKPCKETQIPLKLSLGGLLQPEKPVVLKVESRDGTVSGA
Sequence of c-Src (P12931 whole entry, looked up): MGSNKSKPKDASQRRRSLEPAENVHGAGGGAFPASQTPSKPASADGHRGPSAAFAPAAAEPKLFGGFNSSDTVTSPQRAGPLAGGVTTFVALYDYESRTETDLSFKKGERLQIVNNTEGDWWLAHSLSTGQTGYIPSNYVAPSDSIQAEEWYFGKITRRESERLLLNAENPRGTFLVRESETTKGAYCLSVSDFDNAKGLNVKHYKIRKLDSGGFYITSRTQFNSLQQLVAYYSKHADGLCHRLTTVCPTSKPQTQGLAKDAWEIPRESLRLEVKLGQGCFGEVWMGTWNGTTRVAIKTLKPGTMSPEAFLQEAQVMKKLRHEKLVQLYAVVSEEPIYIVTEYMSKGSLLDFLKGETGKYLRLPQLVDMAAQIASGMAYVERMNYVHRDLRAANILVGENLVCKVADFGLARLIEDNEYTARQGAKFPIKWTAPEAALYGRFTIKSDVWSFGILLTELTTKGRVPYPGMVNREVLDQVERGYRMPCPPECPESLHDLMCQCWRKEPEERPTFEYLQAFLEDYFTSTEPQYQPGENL
Sequence of B-Raf (P15056 whole entry): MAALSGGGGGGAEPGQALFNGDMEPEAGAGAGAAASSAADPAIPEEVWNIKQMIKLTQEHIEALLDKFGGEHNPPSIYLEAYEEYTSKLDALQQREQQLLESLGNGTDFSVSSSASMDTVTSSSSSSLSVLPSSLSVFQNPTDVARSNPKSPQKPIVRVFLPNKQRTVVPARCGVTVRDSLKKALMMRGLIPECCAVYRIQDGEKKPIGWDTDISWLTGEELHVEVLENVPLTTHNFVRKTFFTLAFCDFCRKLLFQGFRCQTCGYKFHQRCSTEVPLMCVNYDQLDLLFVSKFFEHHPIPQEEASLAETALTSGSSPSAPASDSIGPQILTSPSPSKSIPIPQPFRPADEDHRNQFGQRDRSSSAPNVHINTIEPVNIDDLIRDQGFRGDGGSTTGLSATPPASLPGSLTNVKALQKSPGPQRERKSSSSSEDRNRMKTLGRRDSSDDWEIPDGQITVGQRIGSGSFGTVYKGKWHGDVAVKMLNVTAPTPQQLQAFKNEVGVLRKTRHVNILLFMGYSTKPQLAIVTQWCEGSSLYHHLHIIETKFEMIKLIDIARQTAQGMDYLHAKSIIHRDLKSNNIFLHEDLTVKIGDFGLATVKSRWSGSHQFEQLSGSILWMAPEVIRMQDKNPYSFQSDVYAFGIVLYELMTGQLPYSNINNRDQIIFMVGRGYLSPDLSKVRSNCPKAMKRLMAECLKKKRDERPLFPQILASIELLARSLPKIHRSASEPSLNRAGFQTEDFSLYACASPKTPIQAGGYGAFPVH
Sequence of B-Raf (V600E) (P15056 whole entry V600E): as the sequence (P15056 whole entry) above, with V600E counted along it
Sequence of Lck (P06239 whole entry): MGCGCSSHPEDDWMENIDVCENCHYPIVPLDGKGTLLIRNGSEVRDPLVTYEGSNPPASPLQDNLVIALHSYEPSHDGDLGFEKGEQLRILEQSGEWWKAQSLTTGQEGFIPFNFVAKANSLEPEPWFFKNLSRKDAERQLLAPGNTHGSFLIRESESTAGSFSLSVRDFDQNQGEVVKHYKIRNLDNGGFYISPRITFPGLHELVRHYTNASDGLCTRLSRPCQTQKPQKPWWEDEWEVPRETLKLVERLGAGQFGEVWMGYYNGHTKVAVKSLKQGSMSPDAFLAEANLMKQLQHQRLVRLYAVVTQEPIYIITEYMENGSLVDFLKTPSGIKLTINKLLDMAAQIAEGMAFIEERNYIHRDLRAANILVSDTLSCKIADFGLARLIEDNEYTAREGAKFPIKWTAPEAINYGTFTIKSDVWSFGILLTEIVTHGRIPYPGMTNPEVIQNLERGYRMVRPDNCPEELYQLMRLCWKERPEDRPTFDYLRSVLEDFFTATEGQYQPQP
Sequence of p38 MAPKα (Q16539 whole entry): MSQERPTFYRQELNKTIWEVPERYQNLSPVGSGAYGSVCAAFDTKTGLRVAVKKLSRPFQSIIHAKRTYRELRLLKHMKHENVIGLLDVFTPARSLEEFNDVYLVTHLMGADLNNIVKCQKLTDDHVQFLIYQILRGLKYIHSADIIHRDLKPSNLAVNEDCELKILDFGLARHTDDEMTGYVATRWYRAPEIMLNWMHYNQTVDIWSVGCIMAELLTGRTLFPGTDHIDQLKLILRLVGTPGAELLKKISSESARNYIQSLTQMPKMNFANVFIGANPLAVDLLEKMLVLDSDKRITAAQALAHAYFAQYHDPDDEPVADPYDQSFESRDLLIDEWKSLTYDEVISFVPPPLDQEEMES
Sequence of p38 MAPKα (MAPK14) (Q16539 whole entry): as above

## COc1c(NC(=O)Nc2ccc(Oc3ccnc(Nc4ccccc4)c3)c3ccccc23)cc(C(C)(C)C)cc1C(=O)NC1COC1 [Example 75, 5-(tert-Butyl)-2-methoxy-N-(oxetan-3-yl)-3-(3-(4-((2-(phenylamino)pyridin-4-yl)oxy)-naphthalen-1-yl)ureido)benzamide]
[1]
  half-life: > 3.33 h
[1]; read-out: Mean intrinsic clearance
  hepatocyte CLint: < 7 µL/min/1e6 cells
[2]; [4]
  AUC(0-t): 26.6 ng·h/mL
  Cmax: 3.8 ng/mL
  Tmax: 5.3 h
[2]; [5]
  concentration at 0.25 h: 0 ng/mL
  concentration at 0.5 h: 0 ng/mL
  concentration at 1 h: 0 ng/mL
  concentration at 2 h: 1.2 ng/mL
  concentration at 4 h: 3.1 ng/mL
  concentration at 6 h: 2 ng/mL
  concentration at 8 h: 3.2 ng/mL
  concentration at 12 h: 2.3 ng/mL
  concentration at 24 h: 0 ng/mL
[2]; [6]
  AUC(0-inf): 952 ng·h/mL
  AUC(0-t): 948 ng·h/mL
  half-life: 1.2 h
[2]; male, Wistar, rat, plasma, rats, intravenous 0.25 mg/kg in 5% DMSO-7.5% Solutol HS15-87.5% normal saline
  C0: 4000 ng/mL
[2]; male, Wistar, rat, plasma, rats, intravenous 0.25 mg/kg, read-out: Vss
  Vd: 0.1 L/kg
[2]; rats, intravenous 0.25 mg/kg
  CI: 4.4 mL/min/kg
[2]; rats, oral 5 mg/kg, vehicle C (Example 4) or B
  Fpo: 0.1%
p38 MAPKα (MAPK14)
  IC50: 123 nM
c-Src
  IC50: 97 nM
non-mutant kinases; 50 nM
  KinomeScan Selectivity Score S(1): 0.005
  KinomeScan Selectivity Score S(10): 0.035
  KinomeScan Selectivity Score S(35): 0.099
  number of individual kinase hits, S(1): 2
  number of individual kinase hits, S(10): 14
  number of individual kinase hits, S(35): 39
non-mutant kinases; 500 nM
  KinomeScan Selectivity Score S(1): 0.038
  KinomeScan Selectivity Score S(10): 0.139
  KinomeScan Selectivity Score S(35): 0.230
  number of individual kinase hits, S(1): 15
  number of individual kinase hits, S(10): 55
  number of individual kinase hits, S(35): 91
non-mutant kinases; as evidenced by lower selectivity scores
  selectivity compared to the Reference Compound: substantially improved selectivities
Syk
  Kd: 8.8 nM
p38 MAPKα
  Kd: 14 nM
Lck
  Kd: 2.5 nM
B-Raf
  effect on the binding of the kinase B-Raf to its standard ligand: did not have any significant effect
B-Raf (V600E)
  effect on the binding of the kinase B-Raf (V600E) to its standard ligand: did not have any significant effect
CYP3A4; CYP3A4, 0 min preincubation
  IC50: > 15000 nM
  inhibition at 15 µM: 3%
CYP3A4; CYP3A4, 30 min preincubation
  IC50: > 15000 nM
  inhibition at 15 µM: 42%
[3]; [7]
  IL-1β Anterior: 570 ± 146 pg/mL
  IL-1β Posterior: 414 ± 97 pg/mL
  IL-6 Anterior: 393 ± 118 pg/mL
  IL-6 Posterior: 489 ± 119 pg/mL
  MCP-1 Anterior: 239 ± 82 pg/mL
  MCP-1 Posterior: 279 ± 83 pg/mL
[3]; rats treated with intravitreal endotoxin LPS, topical dosing
  cytokine levels in both the anterior and posterior segments of the eyes: significantly reduced
